Measurements from patent US10786580B2, “Cholecystokinin 2 receptor targeted NIR imaging and use thereof” (On Target Laboratories, LLC, priority 2016, dated 2020).
Where two headings read alike, the source gives them in different places.

Molecular target: T1, CCK2R (Homo sapiens, UniProt P32239)
T1 sequence (P32239 1-447): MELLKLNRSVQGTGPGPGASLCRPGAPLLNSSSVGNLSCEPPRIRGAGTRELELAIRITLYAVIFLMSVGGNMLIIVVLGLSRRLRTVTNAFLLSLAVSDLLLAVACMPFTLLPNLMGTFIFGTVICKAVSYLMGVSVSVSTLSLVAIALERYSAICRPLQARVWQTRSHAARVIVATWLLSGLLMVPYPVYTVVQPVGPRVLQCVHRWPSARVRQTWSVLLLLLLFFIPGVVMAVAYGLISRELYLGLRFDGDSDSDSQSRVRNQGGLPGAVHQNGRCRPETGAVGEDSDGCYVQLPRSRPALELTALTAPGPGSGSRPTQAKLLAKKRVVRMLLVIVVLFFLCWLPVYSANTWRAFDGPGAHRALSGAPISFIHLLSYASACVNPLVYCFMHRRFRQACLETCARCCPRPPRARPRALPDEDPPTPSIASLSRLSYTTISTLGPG
Assay: In vitro binding of CCK2R-NIR compounds to HEK-CCK2R cells (cell bound fluorescence)
Design: expressed in transfected cells; host or cells: HEK (human embryonic kidney) cells, HEK-CCK2R, gift from Dr. Mark Hellmich (UTMB)
Settings: for affinity for CCK2R (in words): in vitro binding affinity data; for Kd: CCK2R-positive HEK-CCK2R cancer cells, 1 h at 37° C., read-out: KD
Description: (§1) FIG. 4 depicts the binding affinities of CCK2R-NIR compounds 21, 42-44 to CCK2R. CCK2R-positive HEK-CCK2R cancer cells were incubated for 1 h at 37° C. with increasing concentrations of compounds. Media was then removed, washed with fresh media three times, and replaced with PBS. Cell bound fluorescence was assayed as using fluorometer.
CCK2R-positive HEK-CCK2R cancer cells were incubated for 1 h at 37° C. with increasing concentrations of compounds. Media was then removed, washed with fresh media three times, and replaced with PBS. Cell bound fluorescence was assayed as using fluorometer.
as §1, with “13 illustrates” for “4 depicts”, “affinity” for “affinities”, “of” for “of CCK2R-NIR”, “[…]” for “21, 42-44”, “compound 21.” for “compounds.”
HEK-CCK2 cells (a human embryonic kidney cells transfected with CCK2 receptor) were a kind gift from Dr. Mark Hellmich (University of Texas Medical Branch, Galveston, Tex.) and grown as a monolayer using Dulbecco's Modified Eagles Medium (GIBCO) (Gibco, NY) 10% heat-inactivated fetal bovine serum (Atlanta Biological, GA) and 1% penicillin streptomycin (Gibco, NY) in a 5% carbon dioxide: 95% air-humidified atmosphere at 37° C. for at least six passages before they were used for the assays.
HEK cells that overexpress CCK2 were seeded into a T75 flask and allowed to form a monolayer over 48 h. After trypsin digestion, release cells were transferred into centrifuge tubes (1×10^6 cells/tube) and centrifuged. The medium was replaced with fresh medium containing increasing concentration of requisite CCK2R-Ligand-NIR dye compound in the presence or absence of 100-fold excess the ligand, a high affinity CCK2 receptor antagonist, and incubated for 1 h at 37° C. After rinsing with fresh medium (2×1.0 mL) and PBS (1×1.0 mL), cells were resuspended in PBS (1.0 mL) and cell bound fluorescence was analyzed (100,000 cells/sample) using a fluorometer (Cary, Agilent). The relative binding affinities were calculated using a plot of % cell bound fluorescence versus the log concentration of the test article using GraphPad Prism 4.

SMILES	affinity for CCK2R (in words) (HEK-CCK2R cells)	affinity for CCK2R compared to compound 21 (HEK-CCK2R cells)	Kd (Table 2)	Kd (Table 1)
CC(C)(C)C(=O)CN1C(=O)[C@@H](NC(=O)Nc2cccc(C(=O)N[C@@H](CCC(=O)N[C@H](CCCNC(=N)N)C(=O)N[C@H](CC(=O)O)C(=O)N[C@H](Cc3ccc(OC4=C(/C=C/C5=[N+](CCCCS(=O)(=O)[O-])c6ccc(S(=O)(=O)O)cc6C5(C)C)CCC/C4=C\C=C4\N(CCCCS(=O)(=O)O)c5ccc(S(=O)(=O)O)cc5C4(C)C)cc3)C(=O)O)C(=O)O)c2)CN(C2CCCCC2)c2ccccc21 [Compound 44]	relatively weaker affinity			
CC(C)(C)C(=O)CN1C(=O)[C@H](NC(=O)Nc2cccc(C(=O)NCCCC(=O)N[C@@H](Cc3ccc(OC4=C(/C=C/C5=[N+](CCCCS(=O)(=O)[O-])c6ccc(S(=O)(=O)O)cc6C5(C)C)CCC/C4=C\C=C4\N(CCCCS(=O)(=O)O)c5ccc(S(=O)(=O)O)cc5C4(C)C)cc3)C(=O)O)c2)CN(C2CCCCC2)c2ccccc21 [Compound 48]	very high affinity	less affinity	0.9 nM	
CC(C)(C)C(=O)CN1C(=O)[C@H](NC(=O)Nc2cccc(C(=O)N[C@@H](CCC(=O)N[C@@H](Cc3ccc(OC4=C(/C=C/C5=[N+](CCCCS(=O)(=O)[O-])c6ccc(S(=O)(=O)O)cc6C5(C)C)CCC/C4=C\C=C4\N(CCCCS(=O)(=O)O)c5ccc(S(=O)(=O)O)cc5C4(C)C)cc3)C(=O)O)C(=O)O)c2)CN(C2CCCCC2)c2ccccc21 [Compound 45]			2.3 nM	
CC(C)(C)C(=O)CN1C(=O)[C@@H](NC(=O)Nc2cccc(C(=O)N[C@H](CCC(=O)N[C@@H](Cc3ccc(OC4=C(/C=C/C5=[N+](CCCCS(=O)(=O)[O-])c6ccc(S(=O)(=O)O)cc6C5(C)C)CCC/C4=C\C=C4\N(CCCCS(=O)(=O)O)c5ccc(S(=O)(=O)O)cc5C4(C)C)cc3)C(=O)O)C(=O)O)c2)CN(C2CCCCC2)c2ccccc21 [Compound 47]	relatively weak affinity		14.7 nM	
CC(C)(C)C(=O)CN1C(=O)[C@@H](NC(=O)Nc2cccc(C(=O)N[C@H](CCC(=O)O)C(=O)N[C@H](Cc3ccc(OC4=C(/C=C/C5=[N+](CCCCS(=O)(=O)[O-])c6ccc(S(=O)(=O)O)cc6C5(C)C)CCC/C4=C\C=C4\N(CCCCS(=O)(=O)O)c5ccc(S(=O)(=O)O)cc5C4(C)C)cc3)C(=O)O)c2)CN(C2CCCCC2)c2ccccc21 [Compound 43]	very high affinity			
CC(C)(C)C(=O)CN1C(=O)[C@H](NC(=O)Nc2cccc(C(=O)NCCCC(=O)N[C@H](Cc3ccc(OC4=C(/C=C/C5=[N+](CCCCS(=O)(=O)[O-])c6ccc(S(=O)(=O)O)cc6C5(C)C)CCC/C4=C\C=C4\N(CCCCS(=O)(=O)O)c5ccc(S(=O)(=O)O)cc5C4(C)C)cc3)C(=O)O)c2)CN(C2CCCCC2)c2ccccc21 [Compound 49]			13.9 nM	
CC(C)(C)C(=O)CN1C(=O)[C@H](NC(=O)Nc2cccc(C(=O)N[C@H](CCC(=O)N[C@@H](CCCNC(=N)N)C(=O)N[C@@H](Cc3ccc(OC4=C(/C=C/C5=[N+](CCCCS(=O)(=O)[O-])c6ccc(S(=O)(=O)O)cc6C5(C)C)CCC/C4=C\C=C4\N(CCCCS(=O)(=O)O)c5ccc(S(=O)(=O)O)cc5C4(C)C)cc3)C(=O)O)C(=O)O)c2)CN(C2CCCCC2)c2ccccc21 [Compound 42]	relatively weaker affinity			1.74 nM
